The values that follow come from a melting point compilation (Tetko et al.; mined from patent text by program, amines drawn as free bases though some values may be those of a salt).

Broadly, the melting point is the temperature of the solid-liquid transition.

Molecules are shown by their SMILES.

With `Cc1oc(-c2ccccc2)nc1COc1ccc(COc2cccnc2CO)cc1`, the melting point lay within 118 to 119 °C.

The molecule `O=C(Nc1ccc(N2CCCC2)nc1)c1cc2nc(C(F)(F)F)ccc2n1Cc1cccc(F)c1` showed a melting point of 219 to 220 °C. Under `CCCCCCCCCCCCCCCCCCOc1cc(C(=O)OC)cc([N+](=O)[O-])c1` stands 64 to 66 °C; under `CC(C)c1ccc(C2C(=O)Oc3ccc(Br)cc32)cc1` (stereo not drawn), 157 to 158 °C. Then `C=C(C)C(=O)NCCCCCCCCCCCC(=O)O`, with 70.8 to 72.4 °C; and `COc1ccccc1-c1nn(C(C)(C)C(=O)N(C)C)cc1C`, with 146 to 148 °C.

In the case of `Cc1nc2c(s1)-c1nc(Nc3cccc([N+](=O)[O-])c3)ncc1CC2`, the melting point lay within 227 to 228 °C. For the molecule `COc1cc(CCC(=O)CC(=O)CCc2ccc(O)c(OC)c2)ccc1O`, the melting point fell in the range of 92 to 94 °C. Under `CCCCc1nc2c(N)nc3ccccc3c2n1CCCNC(=S)Nc1ccccc1` stands 143 to 144 °C; under `COc1cccnc1Br`, 34 °C.

For `CN(CCCCNC(=NCCCOc1cccc(CN2CCCCC2)c1)NC#N)CCN(Cc1ccc(F)cc1)c1ccccn1`, the melting point was in the range of 84 to 86 °C. `N#CN=CNC1c2ccccc2CC2CCCCC21` (stereo not drawn) displayed a melting point of 145 to 165 °C. Then `Oc1cccc([C@H]2CCCC[C@H]2NCCCCc2ccccc2)c1` (racemic), with 115 to 116 °C. Then `CS(=O)(=O)c1ccc(-c2ccccc2-c2ccc(F)cc2)cc1`, with 178 to 179 °C. Then `Cc1cc2cc(CN(C)C)cnc2cc1NC(=O)c1ccc(-c2ccc(F)cc2)cc1`, with 183 to 186 °C; and `COCCONS(=O)(=O)c1ccccc1`, with 110 to 112 °C; and `Cc1ccc(C(=O)N2CCc3nnc(NN)cc3C2)cc1`, with 207 to 210 °C. For the molecule `CC(C)(C)OC(=O)N1CCCC(c2ccc3c(c2)C2(CO3)C(=O)Nc3ccccc32)C1` (stereo not drawn), the melting point is 120 to 123 °C. Under `CN(C)CCNC(=O)c1ccc(-c2ccc3nnn(Cc4ccc5ncccc5c4)c3n2)cc1F` stands 122 to 125 °C; under `CC(C)Oc1ccc2c(c1)Oc1cc(F)ccc1S2(=O)=O`, 135 to 136 °C. Molecule `COc1cc(OC)c2c(=O)[nH]c(-c3cccc(-c4ccc(S(C)=O)s4)c3)nc2c1` (stereo not drawn) displayed a melting point of 289 to 290 °C. `CCC(=CC(CNC(=O)c1ccc(NS(C)(=O)=O)nc1)=NO)C(C)[N+](=O)[O-]` (stereo not drawn) displayed a melting point of 131 to 136 °C. Under `N#Cc1c(SC(F)(F)F)c(N)n(-c2c(Cl)cc(C(F)(F)F)cc2Cl)c1C#N` stands 175 to 177 °C. Then `COC=C(C(=O)OC)c1ccccc1CON=C(C)C(=NOC)c1ccc(CCc2ccc(Cl)cc2Cl)cc1`, with 112 to 114 °C; and `O=[N+]([O-])c1cc(NCCO)ccc1NCCO`, with 107 °C. Then `C=C(C)[C@@H]1CC=C(OC(=O)C2CCC(C(=O)OC3=CC[C@@H](C(=C)C)CC3)CC2)CC1` (stereo partly drawn), with 89 °C; and `ClC(c1ccccc1)(c1ccccc1)c1ccc2ccccc2c1`, with 92 to 93 °C; and `COC(=N)N1CCC(c2nn(-c3ccc(C(F)(F)F)cc3)c3ccccc23)CC1`, with 113 to 115 °C. In turn, `N#Cc1c[nH]cc1-c1ccccc1C(F)(F)F` displayed a melting point of 105 to 107 °C. For the molecule `CC(=O)NCC1(C)OCCc2c1[nH]c1ccccc21` (stereo not drawn), the melting point lay within 100 to 102 °C. As to `CCc1cc(N)c(N)cc1CC`, the melting point lay in the range of 114 to 116 °C.

Take `C/C(=C\Cn1oc(=O)[nH]c1=O)c1ccc2oc(Cc3nc(-c4ccccc4)oc3C)cc2c1`: the melting point lay within 81 to 83 °C.

Consider `CCC1c2ccccc2-c2sc(Br)cc2N1S(=O)(=O)c1ccc(O)cc1` (stereo not drawn), for which the melting point lay in the range of 183 to 185 °C. Under `NC(=O)[C@@H]1[C@H](Nc2c(Br)cnc3[nH]c(-c4cccnc4N4CCCC4)nc23)[C@H]2C=C[C@@H]1C2` stands 190 °C; under `NC(=O)NCCn1cc(Cn2ccnc2)c2ccccc21`, 153 to 154 °C; under `COc1ccc2nc3cc(OC)c(=O)c(Cl)c-3sc2c1`, 264 °C.

With `CC1CCc2c(O)ccc3c(=O)c(C(=O)O)cn1c23` (stereo not drawn), the melting point is more than 300 °C.

Regarding `COc1cc(CCCC2OC(=O)NC2=O)ccc1OCc1coc(-c2ccccc2)n1` (stereo not drawn), the melting point fell in the range of 134 to 135 °C. Then `O=C(c1ccc(Cl)cc1)c1ccc(CBr)cc1Cl`, with 88 to 90 °C.

For `O=C(Nc1ccc(F)cc1)N1CCc2cc(S(=O)(=O)N3CCN(c4cccc(Cl)c4)CC3)ccc21`, the melting point was in the range of 192 to 194 °C. `O=C1CCC(N2C(=O)c3cccc(NCc4cccnc4)c3C2=O)C(=O)N1` (stereo not drawn): the melting point was 231 to 233 °C.

In turn, `CCCNC(=O)N1CC(Oc2ccc(C(F)(F)F)cc2)C1` gave a melting point of 119 to 120 °C. Under `CSc1cc(C(=O)c2cc(C(C)(C)C)c(O)c(C(C)(C)C)c2)cn1C` stands 173 to 175 °C.

`CCCN(CCC)C1Cc2c[nH]c3ccc(C(=O)C(C)C)c(c23)C1` (stereo not drawn): the melting point was 128 °C. Then `CNC(=O)c1cnn(-c2ccc(OC)cc2)c1Cl`, with 144 to 146 °C. Then `O=C1c2c(cc(O)c(Cl)c2Cl)CC1(c1ccccc1)c1ccccc1`, with 207 to 213 °C; and `c1cc(N2CCCN(c3ccc(-c4ccc5c(c4)OCO5)cn3)CC2)ncc1-c1ccc2c(c1)OCO2`, with 235 to 237 °C. Then `N#Cc1ccc(C(=O)CC2(O)OCCO2)cc1`, with 151 to 152 °C; and `CC(C)c1nc(CN2C(=O)C3(COc4cc5c(cc43)OCO5)c3cccc(C#N)c32)cs1` (stereo not drawn), with 162 to 163 °C. Molecule `CCCN(CCC12CC3CC(CC(C3)C1)C2)C(=O)NCCCc1ccncc1` yielded a melting point of 99 to 103 °C.

`Clc1nc2ncsc2nc1Cl`: the melting point lay within 124 to 125 °C.

`OC12CC3CC(O)(C1)CC(O)(C3)C2` showed a melting point of 217 °C. Then `CC(=O)Nc1c([N+](=O)[O-])cc([N+](=O)[O-])c2c1CCCC2`, with 203 °C; and `C[C@@H](NC(=O)c1c[nH]c2ncc(-c3nn(C)c4cc(F)cc(F)c34)nc12)C(=O)N1CC(C#N)C1`, with 235 to 265 °C; and `CC1(C)CC(=O)OC(C(Cl)(Cl)Cl)C1Br` (stereo not drawn), with 98.5 to 99.5 °C. Under `N#Cc1ccc(O)c(Cc2cc(F)cc(Cc3cc(C#N)ccc3O)c2O)c1` stands 222 °C; under `NS(=O)(=O)c1cnc(-c2cn(-c3cc(-c4ccc(C(F)(F)F)cc4)cc(C(F)(F)F)n3)cn2)s1`, more than 250 °C. In turn, `Cc1cc(F)ccc1-c1cc(N2CCSCC2)ncc1N(C)C(=O)C(C)(C)c1cc(C(F)(F)F)cc(C(F)(F)F)c1` came in with a melting point of 168 to 170 °C. Under `CCCc1c(OCCCOc2cccc3c2CCCC3)ccc2c1OC(CCC(=O)OC)(CCC(=O)N1CCCC1)CC2=O` (stereo not drawn) stands 106 to 107 °C; under `O=S(=O)(NCCc1ccc(C(O)CCCO)cc1)c1ccc(Br)cc1` (stereo not drawn), 107 to 108 °C; under `O=C1NC(=S)SC1Cc1cccc2c1CCC(=O)N2Cc1ccc(Br)cc1` (stereo not drawn), 191 to 192 °C. Then `Cc1noc2cccc(OCC3CO3)c12` (stereo not drawn), with 51 to 53 °C.

`CCOc1ccc(-c2ccc(O)c(C=O)c2)cc1` gave a melting point of 94 to 95 °C. Then `CNc1ccc(Cl)cc1Cc1ccccc1`, with 125 °C. `CCCCCCCCCCCC(OO)OOC(CCCCCCCCCCC)OO` (stereo not drawn) returned a melting point of 56 to 58 °C.

`COc1ccc(-c2cc(=Nc3c(C)cc(C)cc3C)n(C)c(N(C)Cc3ccccc3)n2)cc1OC` returned a melting point of 96 to 98 °C. Then `CCOC(=O)c1cn(-c2ccc(F)cc2)c2cc(-c3ccncc3)ccc2c1=O`, with 252 to 253 °C; and `CCCCCN1C(=O)C(CCC(=O)OCC)(NC(=O)c2ccc3ccccc3c2)c2ccc(OC)cc21` (stereo not drawn), with 156 to 159 °C; and `COc1cc(C2=C(c3c[nH]c4ncccc34)C(=O)NC2=O)cc(OC)c1OC`, with 162 °C.

As to `Nc1nc(-c2ccc(F)cc2)c(CC(=O)O)s1`, the melting point is 267 to 268 °C. Then `CN1C(=O)CN=C(c2cccc(Cl)c2)c2cc(C(=O)c3ccc(Cl)cc3)ccc21`, with 176 °C; and `Nc1nc2ccccc2c2c1ncn2CCCCNC(=O)COc1ccc(C(=O)c2ccccc2)cc1`, with 73 to 98 °C; and `C=Cc1nc(C#N)c(C#N)[nH]1`, with 168 to 170 °C. `COc1ccc(C2=NN(C3CCN(S(=O)(=O)c4ccc(C#N)cc4)CC3)C(=O)C(C)(C)C2)cc1OC` had a melting point of 161 to 163 °C.

With `COC(=O)c1ccc(Cc2cc3cc(C(F)(F)F)ccc3[nH]2)cc1`, the melting point worked out at 127 °C. Under `CCN1CCCC1c1cccc(OC(=O)NC)c1` (stereo not drawn) stands 67 to 69 °C; under `O=C(C=Cc1ccc(Br)cc1)N1CCc2c([nH]c3ccccc23)C1c1ccc2c(c1)OCO2` (stereo not drawn), 188 to 190 °C; under `CC1(C)CCC(C)(C)c2cc(NC(=O)c3ccc(C=O)cc3)ccc21`, 186 °C. In the case of `CCCCOCCOc1ccc(-c2cc(/C=C/C(=O)O)c3c(c2)CCCN3C)cc1`, the melting point was in the range of 128 to 129 °C.

The molecule `CCn1cnc2c(=O)[nH]c(N)nc21` gave a melting point of more than 300 °C.

`C=C(CCC(C)C1CCC2C3=C(C(=O)CC21C)C1(C)CCC(=O)C(C)C1CC3O)C(C)C(=O)OC` (stereo not drawn) yielded a melting point of 100 to 101 °C. Under `COC(=O)c1ccc(Br)c(O)c1` stands 130 to 132 °C; under `CN(C)CCOC(=O)c1cccc(Nc2cc(C(C)(C)C)c(O)c(C(C)(C)C)c2)c1`, 119 to 120 °C.

`COc1ccc(-c2nc(N)c(C(N)=O)nc2-c2ccc(=O)n(C(C)C)c2)cc1` came in with a melting point of 244 °C. Under `CCCCCCCCC(SCCCCCC)C(=O)Nc1cccc2nnccc12` (stereo not drawn) stands 54 to 56 °C; under `COC(=O)c1cc2c(cc1OC)OCO2`, 74 to 75 °C. Under `CN(C=O)CNC(=O)c1cc(Cl)nc(Cl)c1` stands 150 to 155 °C. Under `CS(=O)c1ccc(-c2c(-c3ccncc3)nc3n2CCC3)cc1` (stereo not drawn) stands 180 to 182 °C.
